We go through 22 compounds from ChEMBL document CHEMBL1127607, “Genetically evolved receptor models: a computational approach to construction of receptor models” (J Med Chem, 1994).

For this assay, the species on record is Homo sapiens. Nature of the assay: Potency based on concentration of sweetener which matches the sweetness recognition threshold of sucrose (~2%). The class given is functional, organism-based.
`N#Cc1ccc(N/C(=N/CC(=O)O)NS(=O)(=O)c2ccccc2)cc1` showed a Log potency of 4.48.
With `CC(NC(=O)C(N)CC(=O)O)C(=O)NC1CCCC1` (configuration not stated) the figure was 1.7; with `N#CN/C(=N\CC(=O)O)Nc1ccc(C#N)cc1`, 3.85.
With `O=C(O)C/N=C(\NCc1ccccc1)Nc1cc(Cl)cc(Cl)c1` the figure was 4.9; with `N#Cc1ccc(NC(=O)NCCC(=O)O)cc1`, 2.65; with `C[C@@H](N/C(=N\CC(=O)O)Nc1cc(Cl)cc(Cl)c1)c1ccccc1`, 5.08.
With `N#Cc1ccc(NC(=O)NC(CC(=O)O)c2ccccc2)cc1` (configuration not stated) the figure was 4; with `COC(=O)C(Cc1ccccc1)NC(=O)C(CC(=O)O)/N=C(\S)Nc1ccc(C#N)cc1` (configuration not stated), 4.7.
`O=C(O)CCNC(=O)Nc1ccc([N+](=O)[O-])cc1` returned a Log potency of 2.85.
In turn, `N#Cc1ccc(N/C(=N/CC(=O)O)NC2CCCCCCC2)cc1` returned a Log potency of 5.23.
The figure for `N#Cc1ccc(NC(=O)NC(CC(=O)O)c2ccncc2)cc1` (configuration not stated) is 3.3; for `CC12CCC(C1)C(C)(C)C2OC(=O)C(NC(=O)C(N)CC(=O)O)c1cccs1` (configuration not stated) it is 3.38; for `N#Cc1ccc(N/C(=N/CC(=O)O)NCc2ccccc2)cc1` it is 4.48.
With `N#Cc1ccc(NC(=O)NC(CC(=O)O)c2cccnc2)cc1` (configuration not stated) the figure was 4.3.
As to `COC(=O)[C@H](Cc1ccccc1)NC(=O)[C@@H](N)CC(=O)O`, the Log potency turned out to be 2.26.
For `COC(=O)C(Cc1ccccc1)NC(=O)C(CC(=O)O)NC(=O)Nc1ccc(C#N)cc1` (configuration not stated), the Log potency was determined as 4.
With `N#Cc1ccc(N/C(S)=N/CCC(=O)O)cc1` the figure was 3.32; with `CC12CCC(C1)C(C)(C)C2OC(=O)C(NC(=O)C(N)CC(=O)O)c1ccco1` (configuration not stated), 4.22.
With `CC(NC(=O)C(N)CC(=O)O)C(=O)NC1C(C)(C)SC1(C)C` (configuration not stated) the figure was 3.3; with `N#CN/C(=N\CCC(=O)O)Nc1ccc(C#N)cc1`, 2.95.
Regarding `C[C@@H](N/C(=N\CC(=O)O)Nc1ccc(C#N)cc1)c1ccccc1`, the Log potency is 4.45.
The figure for `CC(NC(=O)C(N)CC(=O)O)C(=O)NC1C(C)(C)CCC1(C)C` (configuration not stated) is 2.9.
